The target of experiment [1] is human CB1 (Homo sapiens, UniProt P21554). In words: Cyclic AMP assay (HTRF), CHO cells expressing human CB1. Format: cell-based. On the procedure: (§1) Chinese Hamster Ovary cells (CHO) expressing human CB1 or human CB2 (3.3×10^5 cells/ml) were preincubated for 15 min at room temperature with tested agonist and 3-isobutyl-1-methylxanthine (IBMX; 200 μM) in phosphate buffered saline containing 1 mg/ml BSA (assay buffer) followed by 30 min incubation with forskolin in a total volume of 10 μl. The optimal forskolin concentration for each cell line was established in a separate experiment and adjusted to stimulate 70% of maximal cAMP response. cAMP content was measured using an HTRF assay (CisBio) according to the manufacturer's two step protocol.
human CB1, sequence (P21554 whole entry): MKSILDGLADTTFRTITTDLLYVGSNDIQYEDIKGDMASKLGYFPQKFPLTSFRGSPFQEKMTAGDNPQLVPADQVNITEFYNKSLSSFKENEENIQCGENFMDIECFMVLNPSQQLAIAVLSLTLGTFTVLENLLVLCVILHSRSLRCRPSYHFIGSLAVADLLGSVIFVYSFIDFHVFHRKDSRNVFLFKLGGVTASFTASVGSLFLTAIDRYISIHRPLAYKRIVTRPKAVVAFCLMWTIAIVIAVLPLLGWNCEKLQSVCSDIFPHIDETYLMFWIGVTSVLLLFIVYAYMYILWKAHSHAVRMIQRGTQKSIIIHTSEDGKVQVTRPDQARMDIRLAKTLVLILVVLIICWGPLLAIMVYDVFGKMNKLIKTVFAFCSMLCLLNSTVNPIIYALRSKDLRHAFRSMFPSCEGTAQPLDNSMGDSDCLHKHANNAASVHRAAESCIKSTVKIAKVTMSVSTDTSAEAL

The target of experiment [2] is human CB2 (Homo sapiens, UniProt P34972). In words: Cyclic AMP assay (HTRF), CHO cells expressing human CB2. Type of experiment: cell-based. The settings on record: for Emax: CHO, read-out: CB2 Emax. On the procedure:
as §1

Setting [3] is: agonist, forskolin-stimulated cAMP in CHO cells expressing human CB2, text calls the value IP, read-out: CB2 cAMP.

The structures appear in SMILES notation. Like-named read-outs stand apart in the source and are kept apart here.

human CB2, sequence (P34972 whole entry): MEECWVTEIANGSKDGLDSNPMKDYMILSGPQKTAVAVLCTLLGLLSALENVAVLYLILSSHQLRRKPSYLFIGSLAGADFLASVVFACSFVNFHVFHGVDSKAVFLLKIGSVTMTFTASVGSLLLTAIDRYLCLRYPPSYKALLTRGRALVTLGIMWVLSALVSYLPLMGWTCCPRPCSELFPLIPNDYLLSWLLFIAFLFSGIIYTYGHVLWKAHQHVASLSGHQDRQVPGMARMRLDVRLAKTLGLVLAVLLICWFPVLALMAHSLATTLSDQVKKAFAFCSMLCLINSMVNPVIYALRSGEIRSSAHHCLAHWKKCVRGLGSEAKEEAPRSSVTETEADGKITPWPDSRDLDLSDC

In general, Emax refers to the maximal effect, on the per cent scale that the assay sets. On to `O=C(Nc1cccc2cnccc12)c1nc(C(=O)N2CCC(F)CC2)n2ccccc12`, for which the EC50 in experiment [1] stood at 2150 nM; in experiment [2], 23.5 nM. In experiment [2], the Emax was found to be 79.5%.
For the compound `O=C(NC12CC3CC(CC(C3)C1)C2)c1nc(C(O)c2cccnc2)n2ccccc12` (stereo not drawn), the EC50 in experiment [1] is over 17000 nM. In experiment [2], the EC50 came out at 46.2 nM and the Emax was found to be 80.8%.
Regarding `O=C(c1cccc(Cl)c1)c1nc(-c2ccc(F)cc2)n2ccccc12`, the EC50 in experiment [1] was over 17000 nM; in experiment [2] (setting [3]), 176 nM. Moreover, the Emax in experiment [2] worked out at 63.7%.
Take `O=C(NC12CC3CC(CC(C3)C1)C2)c1nc(Oc2cccc(F)c2)n2ccccc12`: the EC50 in experiment [1] came to 140 nM. Besides, in experiment [2], the EC50 was determined as 1.92 nM and the Emax came to 91.5%.
The matching figures for `CC(NC(=O)c1nc(N2CCOCC2)n2ccccc12)C(C)(C)C` (stereo not drawn): over 17000 nM, 5.2 nM and 99.5%.
On to `O=C(NC12CC3CC(CC(C3)C1)C2)c1nc(C2CCCN2)n2ccccc12` (stereo not drawn), for which the figures for the EC50 in experiment [1] and in experiment [2] were 845 nM and 5.93 nM, respectively. Also, the Emax in experiment [2] is 87.1%.
For the compound `O=C(NC1(c2ccccc2)CC1)c1nc(-c2cccc(F)c2)n2ccccc12`, the figures for the EC50 in experiment [1] and in experiment [2] were 544 nM and 62 nM, respectively. Further, the Emax in experiment [2] was 69.8%.
In experiment [1], `CC(NC(=O)c1nc(Cl)c2ccccn12)c1ccccc1Cl` (stereo not drawn) showed an EC50 of over 17000 nM. Besides, in experiment [2], the EC50 is 18.4 nM and the maximum response (Emax) stood at 83.8%.
In the same order, the values of `O=C(NC(C1CC1)C1CC1)c1nc(-c2ccc(F)cc2)c2ccccn12` are 405 nM, 2.01 nM and 96.4%.
As for `O=C(Nc1ccccc1Cl)c1nc(CN2CCC(O)C2)c2ccccn12` (stereo not drawn), the EC50 was over 17000 nM in experiment [1] and 261 nM in experiment [2] (setting [3]). In addition, the Emax in experiment [2] is 69.9%.
For `O=C(c1ccc2ccccc2c1)c1nc(CN2CCOCC2)c2ccccn12`, in experiment [1], the EC50 amounted to 878 nM. In experiment [2], the EC50 was 2.28 nM and the Emax turned out to be 76.7%.
In the case of `O=C(NCC1CCOCC1)c1nc(-c2cccnc2)n2ccccc12`, the EC50 was over 17000 nM in experiment [1] and 6430 nM in experiment [2] (setting [3]). In experiment [2], the Emax is 74.7%.

Source of the values: US20090325936A1, “IMIDAZOPYRIDINE ANALOGS AS CB2 RECEPTOR MODULATORS, USEFUL IN THE TREATMENT OF PAIN, RESPIRATORY AND NON-RESPIRATORY DISEASES” (priority 2006, published 2009).
